From patent publication US12364695B2, “Methods of treating inflammatory disease” (INTRA-CELLULAR THERAPIES, INC., priority 2020, dated 2025)

Experiments:
BV2 cells = test: Microglia chemotaxis assay (Transwell, ADP); format: cell-based; conditions: 100 μM ADP, 4 hours, FIG. 10
Procedure: BV2 cells were added to upper chamber of a 5 μm pore Transwell 96-well plate over a reservoir containing 100 μM ADP and incubated at 37° C. with 5% CO2 for 4 hours. After the incubation cells were harvested with pre-warmed cell detachment solution for 30 minutes in the same incubation conditions. 75 μl of this cell detachment solution was combined with 75 μl of culture medium in a new 96 well plate compatible with a fluorescence reader. Cell number in bottom chamber was determined by adding CyQuant® GR dye and reading in the Envision fluorescence reader at 480 nm EX/520 nm EM.

MCP-1/CCL2 = test: Cytokine production in plasma following zymosan sterile insult (FIG. 7); format: in vivo, mouse; conditions: at 3 and 7 days, in comparison with control groups
Procedure: FIG. 7 depicts cytokine production in plasma in test subjects following sterile insult when treated with Compound 1.
(§1) Zymosan is injected into the pleural cavities of mice in order to induce sterile inflammation. Infiltration of leukocytes, neutrophils, and macrophages are monitored at days 3 and 7 following injection. Detection of various cell types are identified according to the gating strategy outlined in Table 1 below.

[1] = tested on: cytokine markers (IFNγ, IL-1β, MCP1-β, TNF-α, IL10); test: Inflammatory biomarkers in mouse zymosan pleurisy model; format: in vivo; conditions: after 4 hours
Procedure: (§2) Zymosan was injected into the pleural cavities of mice in order to induce sterile inflammation by the methods discussed in Example 1. Compound 1 was administered to test subjects to observe the effects on a variety of inflammatory biomarkers. Results were recorded after 4 hours. […] IFNγ, IL-1β, MCP1-β and TNF-α decreased following administration of Compound 1 in all serum and plasma samples.

[2] = tested on: Docosahexaenoic Acid Metabolites; test: Detection of docosahexaenoic acid metabolites, mouse zymosan pleurisy model; format: in vivo; conditions: compared with controls
Procedure: as §2
(§3) Lipids are known to be involved in regulation of a multitude of cellular responses including cell growth and death, and inflammation/infection, via receptor-mediated pathways. Various lipids are involved in both the initiation and resolution of inflammation. Pro-resolving lipid mediators are produced naturally in the body from unsaturated fatty acids, such as arachidonic acid (AA) and docosahexaenoic acid (DHA). Further studies were carried out to identify metabolites of AA and DHA, which are summarized below in Tables 2 and 3.
(§4) As shown above in relation to AA metabolism, 12-HETE and 15-HETE, both intermediate mediators leading to resolution of inflammation, show increased occurrence compared with controls, while pro-inflammatory mediators TXB2, PGE2 and LTB4 all decrease. For the metabolism of DHA, each of 17-HDOHE, RVD5 and 14-HDOHE increase, all of which are related to resolution of inflammation.

[3] = tested on: Arachidonic Acid Metabolites; test: Detection of arachidonic acid metabolites, mouse zymosan pleurisy model; format: in vivo; conditions: compared with controls
Procedure: as §2, §3, §4

[4] = tested on: leukocytes, neutrophils, and macrophages (M1/M2) at the site of inflammation; test: Mouse zymosan model of sterile inflammation, flow cytometry of infiltrating cells; format: in vivo; conditions: for inflammatory resolution (shift from M1 to M2 macrophages): zymosan injection, FIGS. 1-9
Procedure: as §1
In this model, injection of zymosan causes the recruitment of various waves of leukocytes, which are observed and recorded. Exudate volume increases to a maximum over a period of 24 hours, and neutrophils increase within 4 hours and reach a maximum by 48 hours. Lymphocytes of the adaptive immune system enter at a later stage, after three days, which is signaled by macrophages presenting antigens. A resolution phase is well documented in this model and is accompanied by decreased total macrophage number and transition into M2 phenotype.
In the studies, Compounds 1 and 2 were administered to the test subjects, and the effect the compounds had on infiltration of leukocytes, neutrophils, and macrophages was observed.
Similar tests were conducted with Compound 2, the results of which are illustrated in FIGS. 8 and 9. […] An additional test was carried out according to the same method. Mice were injected intraperitoneally with 1 mg Zymosan followed by 10 mg/kg Compound 1. Macrophage levels were recorded at injection, then at 4, 8, 16, 24, 48 and 72 hours post-injection.

Q: With `CN1C(=O)c2c(nn(Cc3ccc(-c4cccc(F)n4)cc3)c2Nc2ccccc2)N2C1=N[C@@H]1CCC[C@@H]12` [Compound 1] as the molecule, how does the “motility of BV2 cells across the membrane” value (BV2 cells) read?
A: marked dampening effect

Q: What about the “inflammatory biomarkers (MCP-1/CCL2) in plasma” value (MCP-1/CCL2) of the same molecule?
A: less inflammatory biomarkers

Q: What about the IFNγ ([1]; serum and plasma) of the same molecule?
A: decreased

Q: What about the IL-1β ([1]; serum and plasma) of the same molecule?
A: decreased

Q: What about the MCP1-β ([1]; serum and plasma) of the same molecule?
A: decreased

Q: And the TNF-α ([1]; serum and plasma)?
A: decreased

Q: What about the IL10 ([1]; serum) of the same molecule?
A: decrease

Q: And the “14-HDOHE (resolution mediator)” value [2]?
A: Increase

Q: What about the “17-HDOHE (intermediate mediator linked to resolution)” value [2] of the same molecule?
A: Increase

Q: What about the “RVD5 (intermediate mediator linked to resolution)” value [2] of the same molecule?
A: Increase

Q: And the “5-HETE (intermediate mediator linked to resolution)” value [3]?
A: No change

Q: And the “12-HETE (intermediate mediator linked to resolution)” value [3]?
A: Increase

Q: What about the “15-HETE (intermediate mediator linked to resolution)” value [3] of the same molecule?
A: Increase

Q: What about the “LTB4 (pro-inflammatory mediator)” value [3] of the same molecule?
A: No change

Q: And the “PGE2 (pro-inflammatory mediator)” value [3]?
A: Decrease

Q: And the “TXB2 (pro-inflammatory mediator)” value [3]?
A: Decrease

Q: And the “M1 macrophage levels (CD80+, iNOS+)” value ([4]; 1 mg Zymosan i.p. then 10 mg/kg, all observed times, FIGS. 11A and 11B)?
A: lower

Q: What about the “Arg1+ M2 macrophages” value ([4]; 10 mg/kg, at 4 hours, FIG. 12A) of the same molecule?
A: increased

Q: And the “CD206+ M2 macrophages” value ([4]; 10 mg/kg, relative to control at 2 and 3 days, FIG. 12B)?
A: significantly increased

Q: And the “total numbers of CD38+ macrophages” value ([4]; day 3, FIG. 5A)?
A: decreased

Q: What about the “number of Egr2+ macrophages” value ([4]; day 3, all animal groups, FIG. 5B) of the same molecule?
A: decreased

Q: What about the “MFI for CD38+ on macrophages” value ([4]; day 3, increase in all groups, FIG. 6A) of the same molecule?
A: lowest value

Q: And the “MFI for CD38+ on macrophages” value ([4]; day 7, all groups)?
A: decreased

Q: What about the “percentage of neutrophils relative to CD45+ leukocytes” value ([4]; day 7, all subjects, FIG. 3B) of the same molecule?
A: dropped significantly

Q: What about the number of neutrophils ([4]; day 7, compared with disease only and vehicle animals, FIG. 3A) of the same molecule?
A: less dramatic decrease

Q: And the “MFI for Egr2+ on macrophages” value ([4]; days 3 and 7, compared to naïve, all groups)?
A: decreased

Q: And the “Egr2+ cell number and percent” value ([4]; overall trend, day 7)?
A: tended to increase

Q: And the “number of CD38+ cells” value ([4]; overall trend, day 7)?
A: tended to decrease

Q: And the “inflammatory resolution (shift from M1 to M2 macrophages)” value [4]?
A: enhanced inflammatory resolution

Q: Which “CD38+ macrophages” value ([4]; 3 mg/kg, day 7, FIG. 8) does the source give for `CN1C(=O)c2c(nn(Cc3ccc(-c4ccccn4)cc3)c2Nc2ccccc2)N2C1=N[C@@H]1CCC[C@@H]12` [Compound 2] here?
A: significant drop

Q: And the “Erg2+ macrophages” value ([4]; 3 mg/kg, day 7, FIG. 9)?
A: sharp and significant increase

Q: And the “inflammatory resolution (shift from M1 to M2 macrophages)” value [4]?
A: enhanced inflammatory resolution
